In patent US10039759B2, “Quinolines as FGFR kinase modulators” (priority 2011, dated 2018):

System: Ba/F3-Flt3-transfected cells
Test: Ba/F3-Flt3 (minus IL3 or plus IL3) cellular proliferation assay, Alamar Blue
Assay type: cell-based
Conditions: plus IL3 (10 ng/ml murine IL3, counterscreen), 24 hours
Protocol: Ba/F3-Flt3 (Minus IL3 or Plus IL3) (Cellular Proliferation Assay)
In a 384 well plate, 100 nl of compound dilution in DMSO was sprayed before adding 50 μl cell culture medium (phenol red free RPMI-1640, 10% FBS, 2 mM L-Glutamine and 50 μg/ml Gentamycin) containing 20000 cells per well of Ba/F3-Flt3-transfected cells. Cells were put in an incubator at 37° C. and 5% CO2. After 24 hours, 10 μl of Alamar Blue solution (0.5 mM K3Fe(CN)6, 0.5 mM K4Fe(CN)6, 0.15 mM Resazurin and 100 mM Phosphate Buffer) was added to the wells, incubated for 4 hours at 37° C. and 5% CO2 before RFU's (Relative Fluorescence Units) (ex. 540 nm., em. 590 nm.) were measured in a fluorescence plate reader.
In this assay, the inhibitory effect of different compound concentrations (range 10 μM to 0.1 nM) was determined and used to calculate an IC50 (M) and pIC50 (−log IC50) value. As a counterscreen the same experiment was performed in the presence of 10 ng/ml murine IL3.

In the case of `COc1cc(OC)cc(N(CC(O)C(F)(F)F)c2ccc3ncc(-c4cnn(C)c4)cc3c2)c1` (single isomer, unassigned) [Compound 25], the “BAF3-FLT3 (PLUS IL3 Alamar Blue pIC50)” value is reported as <5.
